We go through one compound from patent publication US20230255904A1, “PHARMACEUTICAL COMPOSITION FOR PREVENTING OR TREATING CANCER COMPRISING NAPHTHOQUINONE-BASED COMPOUND AND IMMUNE CHECKPOINT INHIBITOR AS ACTIVE INGREDIENTS” (NADIANBIO LTD., priority 2020, published 2023).

For one test, the system named is CT26. Put plainly: Tumor growth inhibition, animal model for colorectal cancer II (CT26). The format is in vivo,  mice. The note with it: Dunnione 40 mg/kg oral every day from 6th day, 4 times. Here is the method: (§1) All mice used in the experiments were raised in a sterile animal room with constant temperature (22° C. to 26° C.) and constant humidity (55% to 60%), acclimatized for 1 week while sufficiently supplying typical solid feed (Samtako Inc., Korea) and water, and then used. All experiments were conducted after obtaining approval from the Institutional Animal Care and Use Committee in accordance with the laboratory animal care and ethics regulations of the Institutional Animal Care and Use Committee of Wonkwang University.
(§2) 7-week-old BALB/c or C57BL/6 mice were used, and subcutaneously inoculated using a 1-mL insulin syringe within 30 minutes after mixing the mouse cancer cells with 0.2 mL of PBS.
(§3) After the cancer cell line was subcutaneously implanted, the administration of drugs was started when the size of the cancer reached 50 to 100 mm^3. The volumes (mm^3) of the tumors, which were generated after the inoculation, were measured at intervals of 3 days using a caliper, calculation was performed using the formula of […], and then the results thereof were compared. […]

Another test has as its system B16F10. Put plainly: Tumor growth inhibition, animal model for skin cancer (B16F10). The format is in vivo,  mice. Here is the method: as §1, §2
After the cancer cell line was subcutaneously implanted, the administration of drugs was started when the size of the cancer reached 50 to 100 mm^3. The volumes (mm^3) of the tumors, which were generated after the inoculation, were measured at intervals of 3 days using a caliper, calculation was performed using the formula of […], and then the results thereof were compared.
In addition, sole administration or co-administration of respective drugs was performed according to the administration schedules listed in Tables 4 to 34 below, the tumor volumes were then measured according to the tumor proliferation assessment method described in Example 1.1, the tumor growth inhibition rates (TGI (O)=(Vc−Vt)/Vc×100(%); Vc: tumor volume of control, Vt tumor volume of experimental group) were calculated based the tumor volumes, and the results thereof are shown in the respective tables and FIGS. 1 to 31.

The next test deals with Hepa1-6. Put plainly: Tumor growth inhibition, animal model for liver cancer (Hepa1-6). In kind it is in vivo, C57BL/6 mice. The note with it: Dunnione 40 mg/kg oral every day from 11th day, Anti-CTLA4 antibody 200 μg/head i.p. 2 times a week from 11th day. As for the experimental part:
as §1, §2, §3

A further test relates to MC38. Kind of test: Survival rate analysis, animal model for colorectal cancer I (MC38). The format is in vivo, C57BL/6 mice. As for the experimental part:
After subcutaneous implantation of the cancer cell line, the survival rate was measured by recording the number of mice that died in each group every day. The measurement of survival rate was performed until the death of all mice in all groups or the death of all mice in the control. The average survival day was calculated by obtaining a survival curve using the survival rate.
After sole administration or co-administration of respective drugs was performed according to the administration schedules listed in Tables 36 and 37 below, the survival rates and the average survival days were calculated according to the survival rate analysis method described in Example 3.1, and the results thereof are respectively shown in Tables 36 and 37 and FIGS. 33 and 34.

Where [1] appears, read: Experimental Example 34, dunnione 40 mg/kg oral daily from 6th day, anti-PD-1 antibody 200 μg/head intraperitoneal 2 times a week from 6th to 62nd day, 5-fluorouracil 50 mg/kg intraperitoneal once on 6th day.

As for `CC1OC2=C(C(=O)C(=O)c3ccccc32)C1(C)C` (centres unmarked) [Dunnione, 2,3,3-trimethyl-2H-benzo[g][1]benzofuran-4,5-dione], the “TGI (%)” value in the test on CT26 (Experimental Example 8, Irinotecan 4.626 mg/kg + Leucovorin 10.28 mg/kg + 5-Fluorouracil 61.68 mg/kg i.p. 2 times a week from 6th day) was determined as 21.2%; with CT26 (Experimental Example 9, Anti-PD-1 antibody 200 μg/head i.p. 2 times a week from 6th day), 25.5%; in the test with B16F10 (Experimental Example 21, Dunnione 40 mg/kg oral every day from 6th day, Anti-PD-L1 antibody 200 μg/head i.p. 2 times a week from 6th day, 3 times) it was 24.1%; with B16F10 (Experimental Example 22, Dunnione 40 mg/kg oral every day from 6th day, Anti-PD-L1 antibody 200 μg/head i.p. 2 times a week from 6th day, 3 times, Paclitaxel 14 mg/kg i.p. at intervals of 1 week from 6th day, 2 times), 24.1%; with B16F10 (Experimental Example 23, Dunnione 40 mg/kg oral every day from 6th day, Anti-CTLA4 antibody 200 μg/head i.p. 2 times a week from 6th day, 4 times, Paclitaxel 14 mg/kg i.p. once on 6th day) it was 16.7%; in the test with B16F10 (Experimental Example 24, Dunnione 40 mg/kg oral every day from 7th day, Anti-CTLA4 antibody 100 μg/head i.p. 2 times a week from 7th day, 2 times, Regorafenib 3 mg/kg oral every day from 7th day) it was 9.2%. Moreover, the “TGI (%)” value is listed as 34.6% with B16F10 (Experimental Example 25, Dunnione 40 mg/kg oral every day from 8th day, Anti-PD-1 antibody 100 μg/head i.p. 2 times a week from 8th day, 3 times, Vistusertib 15 mg/kg oral every day from 8th day); 31.5% in the test on B16F10 (Experimental Example 26, Dunnione 40 mg/kg oral every day from 8th day, Everolimus 0.5 mg/kg oral every day from 8th day); 34.6% with B16F10 (Experimental Example 27, Dunnione 40 mg/kg oral every day from 8th day, Anti-PD-1 antibody 100 μg/head i.p. 2 times a week from 8th day, 3 times, Everolimus 0.5 mg/kg oral every day from 8th day); 29.1% in the test with Hepa1-6 (Experimental Example 28, 4 times, Sorafenib 10 mg/kg oral every day from 11th day); 22.4% in the test on Hepa1-6 (Experimental Example 29, 3 times, Everolimus 1 mg/kg oral every day from 11th day). Moreover, the “Survival rate (%) on 38th day after cancer implantation” value in the test on MC38 (Experimental Example 33, dunnione 40 mg/kg oral daily from 4th day, anti-PD-1 antibody 100 μg/head + anti-CTLA4 antibody 100 μg/head intraperitoneal, oxaliplatin 6 mg/kg + 5-fluorouracil 50 mg/kg intraperitoneal at intervals of 15 days, 3 times) was found to be 10%. The Average survival day in the test with MC38 (setting [1]) worked out at 28 days. In addition, the Total survival period in the test with MC38 (setting [1]) fell in the range of 22 to 45.
